Measurements reported in patent publication US6441195B1, “Substituted sulphonylamino(thio) carbonyl compounds” (Bayer Aktiengesellschaft, priority 1995, dated 2002).

How the values were obtained:
Format in all cases: in vivo
[1] = tested on: Matricaria; experiment: Pre-emergence test/Greenhouse, Matricaria; details: after three weeks
How it was run: (§1)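 Emulsifier-formulated compound applied by soil watering ~24 h after sowing; damage scored at three weeks as % of untreated control.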

[2] = tested on: Maize; experiment: Pre-emergence test/Greenhouse, Maize; details: in vivo
How it was run: as §1

[3] = tested on: Lolium; experiment: Pre-emergence test/Greenhouse, Lolium; details: after three weeks
How it was run: as §1

[4] = tested on: Solanum; experiment: Pre-emergence test/Greenhouse, Solanum; details: after three weeks
How it was run: as §1

[5] = tested on: Soya beans; experiment: Pre-emergence test/Greenhouse, Soya beans; details: in vivo
Experimental: To produce a suitable preparation of the active compound, 1 part by weight of active compound is mixed with the stated amount of solvent, the stated amount of emulsifier is added and the concentrate is diluted with water to the desired concentration.
Seeds of the test plants are sown in normal soil. After about 24 hours, the soil is watered with the preparation of active compound. Advantageously, the amount of water per unit area is kept constant. The active compound concentration in the preparation is not important, only the active compound appliation rate per unit area matters.
After three weeks, the degree of damage to the plants is rated in % damage in comparison to the development of the untreated control.
0%=no action (like untreated control)

[6] = tested on: Poa; experiment: Pre-emergence test/Greenhouse, Poa; details: after three weeks
How it was run: as §1

[7] = tested on: Ambrosia; experiment: Pre-emergence test/Greenhouse, Ambrosia; details: after three weeks
How it was run: as §1

[8] = tested on: weeds; experiment: Pre-emergence test (greenhouse), activity against weeds; details: in words
How it was run: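 Three weeks after treatment, % damage relative to untreated plants is scored, 0% meaning no effect. Seeds in normal soil received, roughly one day post-sowing, an aqueous dilution of an acetone/emulsifier concentrate, with the rate per unit area, not concentration, being the relevant dose.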

[9] = tested on: Sorghum; experiment: Pre-emergence test/Greenhouse, Sorghum; details: after three weeks
How it was run: as §1

| Compound | degree of damage to the plants (% damage vs untreated control), Matricaria ([1]; 60 g of ai./ha) [%] | degree of damage to the plants (% damage vs untreated control), Maize [2] [%] | degree of damage to the plants (% damage vs untreated control), Lolium ([3]; 60 g of ai./ha) [%] | degree of damage to the plants (% damage vs untreated control), Solanum ([4]; 60 g of ai./ha) [%] | degree of damage to the plants (% damage vs untreated control), Soya beans [5] [%] | degree of damage to the plants (% damage vs untreated control), Poa ([6]; 60 g of ai./ha) [%] | degree of damage to the plants (% damage vs untreated control), Ambrosia ([7]; 60 g of ai./ha) [%] | activity against weeds [8] | degree of damage to the plants (% damage vs untreated control), Sorghum ([9]; 60 g of ai./ha) [%] | degree of damage to the plants (% damage vs untreated control), Matricaria ([1]; 125 g of ai./ha) [%] | degree of damage to the plants (% damage vs untreated control), Lolium ([3]; 125 g of ai./ha) [%] | degree of damage to the plants (% damage vs untreated control), Solanum ([4]; 125 g of ai./ha) [%] | degree of damage to the plants (% damage vs untreated control), Poa ([6]; 125 g of ai./ha) [%] | degree of damage to the plants (% damage vs untreated control), Ambrosia ([7]; 125 g of ai./ha) [%] | degree of damage to the plants (% damage vs untreated control), Sorghum ([9]; 125 g of ai./ha) [%] | also measured |
| --- | --- | --- | --- | --- | --- | --- | --- | --- | --- | --- | --- | --- | --- | --- | --- | --- |
| COC(=O)c1cccc(C)c1S(=O)(=O)NC(=O)n1nc(SC)n(OC)c1=O [Example 156] | 95 | 0 | 70 | 70 | 10 | 90 | 70 | very strong activity against weeds | 70 | – | – | – | – | – | – | – |
| C#CCSc1nn(C(=O)NS(=O)(=O)c2c(C)cccc2C(=O)OC)c(=O)n1C1CC1 [Example 160] | 95 | 30 | 90 | 90 | 10 | 90 | 90 | very strong activity against weeds | 60 | – | – | – | – | – | – | – |
| Cc1nc(C(=O)NS(=O)(=O)c2c(C)cccc2C(=O)OC(C)C)no1 [Example 12] | – | 0 | – | – | 0 | – | – | very strong activity against weeds | – | 95 | 80 | 95 | 80 | 95 | 60 | – |
| CCCOC(=O)c1cccc(C)c1S(=O)(=O)NC(=O)n1nc(OCCC)n(C)c1=O [Example 22] | – | 20 | – | – | 10 | – | – | very strong activity against weeds | – | 95 | 95 | 95 | 95 | 95 | 80 | – |
| CCOC(=O)c1cccc(C)c1S(=O)(=O)NC(=O)c1noc(C)n1 [Example 10] | – | 0 | – | – | 20 | – | – | very strong activity against weeds | – | – | – | – | – | – | – | degree of damage to the plants (% damage vs untreated control), Matricaria ([1]; 250 g of ai./ha): 95%; degree of damage to the plants (% damage vs untreated control), Lolium ([3]; 250 g of ai./ha): 80%; degree of damage to the plants (% damage vs untreated control), Solanum ([4]; 250 g of ai./ha): 95%; degree of damage to the plants (% damage vs untreated control), Poa ([6]; 250 g of ai./ha): 90%; degree of damage to the plants (% damage vs untreated control), Ambrosia ([7]; 250 g of ai./ha): 95%; degree of damage to the plants (% damage vs untreated control), Sorghum ([9]; 250 g of ai./ha): 70% |
| CCCOC(=O)c1cccc(C)c1S(=O)(=O)NC(=O)n1nc(OC)n(C)c1=O [Example 20] | – | 10 | – | – | 0 | – | – | very strong activity against weeds | – | 95 | 95 | 95 | 95 | 95 | 90 | – |
| COC(=O)c1cccc(C)c1S(=O)(=O)[N-]C(=O)n1nc(SC)n(C)c1=O.[Na+] [Example 145] | 60 | 0 | 95 | 95 | 0 | 95 | 95 | very strong activity against weeds | 95 | – | – | – | – | – | – | – |
| CSc1nn(C(=O)NS(=O)(=O)c2c(C)cccc2C(=O)OC(C)C)c(=O)n1C [Example 8] | 95 | 30 | 95 | 95 | 0 | 90 | 90 | very strong activity against weeds | 80 | – | – | – | – | – | – | – |
| COC(=O)c1cccc(C)c1S(=O)(=O)NC(=O)n1nc(SCC(F)(F)F)n(C2CC2)c1=O [Example 149] | – | 0 | – | – | 30 | – | – | very strong activity against weeds | – | 95 | 95 | 95 | 95 | 95 | 80 | – |
| C#CCSc1nn(C(=O)NS(=O)(=O)c2c(C)csc2C(=O)OC)c(=O)n1C [Example 51] | – | 0 | – | – | 30 | – | – | very strong activity against weeds | – | 95 | 80 | 95 | 80 | 95 | 80 | – |
| CCCOC(=O)c1cccc(C)c1S(=O)(=O)NC(=O)n1nc(OC(C)C)n(C)c1=O [Example 23] | – | 0 | – | – | 0 | – | – | very strong activity against weeds | – | 95 | – | 90 | 80 | 90 | 60 | – |
| COC(=O)c1cccc(C)c1S(=O)(=O)NC(=O)n1nc(OCC(F)(F)F)n(C)c1=O [Example 143] | – | 20 | 90 | 90 | 0 | 90 | 80 | very strong activity against weeds | 90 | – | – | – | – | – | – | – |
